Common to all, as to type: cell-based
The subject of one experiment is IL-6 in THP-1 cells. Nature of the experiment: Inhibition of IL-6 in LPS-stimulated THP-1 human monocyte cells (HTRF). As to conditions: IL-6 HTRF; for EC50: 500 ng/mL LPS, 22 hours; for inhibition at 10 µM: LPS, read-out: percent inhibition in brackets (given for EC50 >10 μM). The method, boiled down: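 IL-6 was quantified by HTRF ratio after LPS (500 ng/mL, 22 h) stimulation of THP-1 monocytes pretreated 2 h with compound, 10-point 1:3 dilutions from 10 μM, 0.1% DMSO. Cells were held in 1% FBS for 24 h beforehand. Values normalised to DMSO; four-parameter EC50, or % inhibition at 10 μM above that.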
On the technique in general: Time-resolved FRET reads energy transfer from a long-lived donor to a nearby acceptor.

The test system of a further experiment is SW480 colon cancer cells. Nature of the experiment: Cell viability assay (CellTiter-Blue) in SW480 colon cancer cells. Particulars: Homo sapiens, 96 h; for inhibition at 10 µM: four days, CellTiter-Blue, read-out: percent inhibition at 10 μM (given for EC50 of >10 μM); for EC50: four days incubation, CellTiter-Blue cell viability. The method, boiled down:
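Four-day exposure of SW480 cells (~2×10^3/well) to compound from 10 μM down to 0.004 μM in 1:3 steps, in duplicate. Resorufin fluorescence from CellTiter-Blue after ~3 h served as the viability read-out. EC50 values came from nonlinear curve fits, with % inhibition at 10 μM given where EC50 >10 μM.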
For orientation: Resazurin is reduced to fluorescent resorufin, in cell work by metabolically active cells.

The test system of experiment [1] is LL29 cells (primary human fibroblasts derived from IPF patients) treated with TGF-β1, α-smooth muscle actin. As to the kind of experiment: Inhibition of the fibrotic process: αSMA staining in TGF-β1 treated primary human fibroblasts from IPF patients (LL29 cells). Particulars: Fibroblast, 96 h; for EC50: LL29 cells treated with TGF-β1 (20 ng/mL), 4 days; for inhibition at 10 µM: LL29 cells treated with TGF-β1, 4 days, read-out: percent inhibition in brackets (given for EC50 >10 μM).

Bounds are passed on as bounds.

`Cn1cc(-c2ccc3[nH]nc(-c4nc5c(-c6ccc7c(c6)OCO7)cncc5[nH]4)c3n2)c(CO)n1` [Compound 1106, (4-(3-(7-(Benzo[d][1,3]dioxol-5-yl)-3H-imidazo[4,5-c]pyridin-2-yl)-1H-pyrazolo[4,3-b]pyridin-5-yl)-1-methyl-1H-pyrazol-3-yl)methanol]: the EC50 (usually the concentration needed to bring the measured effect to its halfway point) in the experiment on IL-6 in THP-1 cells is above 10 µM; in the experiment on SW480 colon cancer cells, above 10 µM; in experiment [1], 2.42 µM. Also, the figures for the inhibition at 10 µM with IL-6 in THP-1 cells and in the experiment with SW480 colon cancer cells were 0% and 3.1%, respectively.

Take `CC(C)CC(=O)Nc1cncc(-c2ccc3[nH]nc(-c4nc5c(-c6cccc(F)c6)cncc5[nH]4)c3n2)c1` [Compound 2, N-(5-(3-(7-(3-Fluorophenyl)-3H-imidazo[4,5-c]pyridin-2-yl)-1H-pyrazolo[4,3-b]pyridin-5-yl)pyridin-3-yl)-3-methylbutanamide]: the EC50 was above 10 µM in the experiment with IL-6 in THP-1 cells, above 10 µM in the experiment on SW480 colon cancer cells and 4.09 µM in experiment [1]. Further, the inhibition – broadly, the drop in the measured response relative to a control, in per cent – at 10 µM in the experiment with IL-6 in THP-1 cells amounted to 25.4%; with SW480 colon cancer cells, 0%.

`Cn1cc(-c2ccc3[nH]nc(-c4nc5c(N6CCCCC6)cncc5[nH]4)c3n2)c(CO)n1` [Compound 1089, (1-Methyl-4-(3-(7-(piperidin-1-yl)-3H-imidazo[4,5-c]pyridin-2-yl)-1H-pyrazolo[4,3-b]pyridin-5-yl)-1H-pyrazol-3-yl)methanol]: the EC50 in the experiment with IL-6 in THP-1 cells is 0.52 µM; in the experiment with SW480 colon cancer cells it was above 10 µM; in experiment [1] it was above 10 µM. For the same compound, the inhibition at 10 µM in the experiment with SW480 colon cancer cells turned out to be 15.5%; in experiment [1], 36%.

With `CCCC(=O)Nc1cncc(-c2ccc3[nH]nc(-c4nc5c(-c6ccncc6)cncc5[nH]4)c3n2)c1` [Compound 129, N-(5-(3-(7-(Pyridin-4-yl)-3H-imidazo[4,5-c]pyridin-2-yl)-1H-pyrazolo[4,3-b]pyridin-5-yl)pyridin-3-yl)butyramide], the results for the EC50 (with IL-6 in THP-1 cells; in the experiment with SW480 colon cancer cells; in experiment [1]) were above 1 µM, above 10 µM and above 10 µM, respectively. The inhibition at 10 µM was 18.7% in the experiment on IL-6 in THP-1 cells, 2.8% in the experiment with SW480 colon cancer cells and 0% in experiment [1].

`CC(C)C(=O)Nc1cncc(-c2ccc3[nH]nc(-c4nc5c(-c6cccnc6)cncc5[nH]4)c3n2)c1` [Compound 93, N-(5-(3-(7-(Pyridin-3-yl)-3H-imidazo[4,5-c]pyridin-2-yl)-1H-pyrazolo[4,3-b]pyridin-5-yl)pyridin-3-yl)isobutyramide]: the EC50 (with IL-6 in THP-1 cells; with SW480 colon cancer cells; in experiment [1]) was above 10 µM throughout. In addition, the inhibition at 10 µM with IL-6 in THP-1 cells is 18%; with SW480 colon cancer cells it was 6.3%; in experiment [1], 12.2%.

In the case of `CS(=O)(=O)NCc1cc(F)cc(-c2cncc3[nH]c(-c4n[nH]c5ccc(-c6cncc(CNCc7ccccc7)c6)nc45)nc23)c1` [Compound 472, N-(3-(2-(5-(5-((Benzylamino)methyl)pyridin-3-yl)-1H-pyrazolo[4,3-b]pyridin-3-yl)-3H-imidazo[4,5-c]pyridin-7-yl)-5-fluorobenzyl)methanesulfonamide], the EC50 is above 10 µM with IL-6 in THP-1 cells, above 10 µM with SW480 colon cancer cells and 7.27 µM in experiment [1]. The inhibition at 10 µM stood at 39.3% in the experiment with IL-6 in THP-1 cells and 0% in the experiment on SW480 colon cancer cells.

In the case of `Cc1ccc(-c2cncc3[nH]c(-c4n[nH]c5ccc(-c6cncc(NC(=O)C(C)C)c6)nc45)nc23)s1` [Compound 373, N-(5-(3-(7-(5-Methylthiophen-2-yl)-3H-imidazo[4,5-c]pyridin-2-yl)-1H-pyrazolo[4,3-b]pyridin-5-yl)pyridin-3-yl)isobutyramide], the 50% effective concentration (EC50) was above 10 µM in the experiment with IL-6 in THP-1 cells, above 10 µM in the experiment on SW480 colon cancer cells and 2.63 µM in experiment [1]. In addition, the inhibition at 10 µM in the experiment with IL-6 in THP-1 cells worked out at 41.3%; with SW480 colon cancer cells it was 2.6%.

Consider `CS(=O)(=O)NCc1cc(F)cc(-c2cncc3[nH]c(-c4n[nH]c5ccc(-c6cncc(NC(=O)c7ccccc7)c6)nc45)nc23)c1` [Compound 459, N-(5-(3-(7-(3-Fluoro-5-(methylsulfonamidomethyl)phenyl)-3H-imidazo[4,5-c]pyridin-2-yl)-1H-pyrazolo[4,3-b]pyridin-5-yl)pyridin-3-yl)benzamide], for which the EC50 (in the experiment with IL-6 in THP-1 cells; in the experiment on SW480 colon cancer cells; in experiment [1]) was above 10 µM throughout. For the same compound, the results for the inhibition at 10 µM (in the experiment with IL-6 in THP-1 cells; with SW480 colon cancer cells; in experiment [1]) were 0%, 1.8% and 0%, respectively.

On to `CN1CCN(c2cncc3[nH]c(-c4n[nH]c5ccc(-c6cncnc6)nc45)nc23)CC1` [Compound 251, 3-(7-(4-Methylpiperazin-1-yl)-3H-imidazo[4,5-c]pyridin-2-yl)-5-(pyrimidin-5-yl)-1H-pyrazolo[4,3-b]pyridine], for which the EC50 (with IL-6 in THP-1 cells; in the experiment on SW480 colon cancer cells; in experiment [1]) was above 10 µM throughout. Also, the inhibition at 10 µM in the experiment on IL-6 in THP-1 cells came out at 31.8%; in the experiment on SW480 colon cancer cells, 0%; in experiment [1], 44.6%.

As for `Fc1cccc(-c2cncc3[nH]c(-c4n[nH]c5ccc(-c6ccncc6)nc45)nc23)c1` [Compound 18, 3-(7-(3-Fluorophenyl)-3H-imidazo[4,5-c]pyridin-2-yl)-5-(pyridin-4-yl)-1H-pyrazolo[4,3-b]pyridine], the EC50 (in the experiment on IL-6 in THP-1 cells; with SW480 colon cancer cells; in experiment [1]) was above 10 µM each time. The inhibition at 10 µM with IL-6 in THP-1 cells worked out at 8.6%; in the experiment on SW480 colon cancer cells it was 6.5%; in experiment [1], 0%.

Take `COc1cccc(-c2cncc3[nH]c(-c4n[nH]c5ccc(-c6cccnc6)nc45)nc23)c1` [Compound 949, 3-(7-(3-Methoxylphenyl)-3H-imidazo[4,5-c]pyridin-2-yl)-5-(pyridin-3-yl)-1H-pyrazolo[4,3-b]pyridine]: the figures for the EC50 (with IL-6 in THP-1 cells; in the experiment on SW480 colon cancer cells; in experiment [1]) were 0.682 µM, above 10 µM and 6.53 µM, respectively. Besides, the inhibition at 10 µM in the experiment with SW480 colon cancer cells was 6.9%.

As to `CN(C)Cc1cncc(-c2ccc3[nH]nc(-c4nc5c(N6CCCCC6)cncc5[nH]4)c3n2)c1` [Compound 181, N,N-Dimethyl-1-(5-(3-(7-(piperidin-1-yl)-3H-imidazo[4,5-c]pyridin-2-yl)-1H-pyrazolo[4,3-b]pyridin-5-yl)pyridin-3-yl)methanamine], the EC50 in the experiment on IL-6 in THP-1 cells amounted to 6.01 µM; in the experiment with SW480 colon cancer cells, 7.75 µM; in experiment [1] it was 8.03 µM.

With `CC(C)C(=O)Nc1cncc(-c2ccc3[nH]nc(-c4nc5c(-c6ccccc6F)cncc5[nH]4)c3n2)c1` [Compound 65, N-(5-(3-(7-(2-fluorophenyl)-3H-imidazo[4,5-c]pyridin-2-yl)-1H-pyrazolo[4,3-b]pyridin-5-yl)pyridin-3-yl)isobutyramide], the concentration giving a half-maximal response (EC50) (in the experiment with IL-6 in THP-1 cells; in the experiment on SW480 colon cancer cells; in experiment [1]) was above 10 µM in each case. Also, the results for the inhibition at 10 µM (in the experiment with IL-6 in THP-1 cells; with SW480 colon cancer cells; in experiment [1]) were 28.2%, 0% and 1.9%, respectively.

On to `Fc1cccc(-c2cncc3[nH]c(-c4n[nH]c5ccc(-c6cncc(OC7CCNCC7)c6)nc45)nc23)c1` [Compound 484, 3-(7-(3-Fluorophenyl)-3H-imidazo[4,5-c]pyridin-2-yl)-5-(5-(piperidin-4-yloxy)pyridin-3-yl)-1H-pyrazolo[4,3-b]pyridine], for which the concentration for a half-maximal effect (EC50) with IL-6 in THP-1 cells was above 10 µM; with SW480 colon cancer cells, above 10 µM; in experiment [1], 1.42 µM. The inhibition at 10 µM worked out at 11.3% in the experiment on IL-6 in THP-1 cells and 11.7% in the experiment on SW480 colon cancer cells.

`NC1CN(c2cncc(-c3ccc4[nH]nc(-c5nc6c(-c7cccc(F)c7)cncc6[nH]5)c4n3)n2)C1` [Compound 482, 1-(6-(3-(7-(3-Fluorophenyl)-3H-imidazo[4,5-c]pyridin-2-yl)-1H-pyrazolo[4,3-b]pyridin-5-yl)pyrazin-2-yl)azetidin-3-amine]: the EC50 (in the experiment on IL-6 in THP-1 cells; with SW480 colon cancer cells; in experiment [1]) was above 10 µM throughout. The values for the inhibition at 10 µM (in the experiment on IL-6 in THP-1 cells; in the experiment on SW480 colon cancer cells; in experiment [1]) were 40.8%, 3.8% and 16.7%, respectively.

With `COc1cccc(-c2cncc3[nH]c(-c4n[nH]c5ccc(-c6cncc(NC(=O)Cc7ccccc7)c6)nc45)nc23)c1` [Compound 955, N-(5-(3-(7-(3-methoxylphenyl)-3H-imidazo[4,5-c]pyridin-2-yl)-1H-pyrazolo[4,3-b]pyridin-5-yl)pyridin-3-yl)-2-phenylacetamide], the EC50 (in the experiment on IL-6 in THP-1 cells; in the experiment on SW480 colon cancer cells; in experiment [1]) was above 10 µM each time. Further, the inhibition at 10 µM stood at 27.5% in the experiment with IL-6 in THP-1 cells, 2.7% in the experiment on SW480 colon cancer cells and 4.2% in experiment [1].

`CS(=O)(=O)NCc1cc(F)cc(-c2cncc3[nH]c(-c4n[nH]c5ccc(-c6cncnc6)nc45)nc23)c1` [Compound 475, N-(3-Fluoro-5-(2-(5-(pyrimidin-5-yl)-1H-pyrazolo[4,3-b]pyridin-3-yl)-3H-imidazo[4,5-c]pyridin-7-yl)benzyl)methanesulfonamide]: the half-maximal effective concentration (EC50) in the experiment with IL-6 in THP-1 cells is above 10 µM; in the experiment with SW480 colon cancer cells it was above 10 µM; in experiment [1], 2.44 µM. Moreover, the figures for the inhibition at 10 µM in the experiment on IL-6 in THP-1 cells and with SW480 colon cancer cells were 0% and 0.9%, respectively.

(Values after US10188634B2, “3-(3H-imidazo[4,5-C]pyridin-2-yl)-1 H-pyrazolo[4,3-B]pyridines and therapeutic uses thereof” (Samumed, LLC, priority 2015, dated 2019).)
